Laboratory results: US8207137B2, “Method of inhibiting angiogenesis or invasion or formation of metastases” (INSERM, priority 2001, dated 2012)

Test system: CPAE cells (calf pulmonary artery endothelial cells)
Assay: Adhesion of CPAE endothelial cells to fibrinogen, vitronectin and fibronectin
Format: cell-based, bovine
Experimental: First technique: punctual incubation of the endothelial cells with AMEP during the test.
The CPAE were detached from the culture plates by incubation with 1.5 mM EDTA and resuspended at the rate of 5×10^5 cells/ml in the adhesion buffer (140 mM NaCl, 10 mM Hepes, 5 mM glucose, 5.4 mM KCl, 2 mM CaCl2, 1 mM MgCl2, 1 mM MnCl2, pH 7.4). […] Dutcher) that had been incubated in advance for one night at 4° C. with 50 μl of purified fibrinogen (40 μg/ml in PBS; Kabi), 10 μg/ml of vitronectin (Sigma); 30 μg/ml of fibronectin (Sigma) and 1% of BSA (bovine serum albumin) as negative control. After 20 minutes of incubation of the CPAE cells at 37° C., the plate was washed twice with 200 μl of adhesion buffer and the nonspecific sites were saturated with PBS supplemented with 1% of BSA for 1 hour at 37° C. The plate was then washed again twice with the adhesion buffer containing 1% of BSA. The nonadherent cells were eliminated by washing the wells three times with 200 μl of adhesion buffer plus 1% of BSA. Measurement of the phosphatase activity of the cells enabled quantification of the adherent cells. In brief, 100 μl of paranitrophenol phosphate (Sigma) at 3 mg/ml in the acetate buffer pH containing 0.1% of X100 Triton was added to the wells and incubated for 2 h at 37° C. The reaction was stopped by the addition of 1N NaOH. The release of paranitrophenol, which indicates the number of adherent cells, was measured after reading of the absorbance at 405 nm with an ELISA reader (Titertek Twinreader). […] The remainder of the protocol was identical to the that described above with the exception that no additional incubation of the cells with AMEP was performed.

[1] = cells incubated punctually for 30 minutes prior to adhesion test, 1.4-kDa peptide 1 μg/ml, AMEP 10 μg/ml (comparable molar concentration)
[2] = cells preincubated for 24 h, same molar concentration (AMEP 10 μg/ml, 1.4-kDa peptide 1 μg/ml)

## AMEP: disintegrin domain of human metargidin (Met-420 to Glu-511, SEQ ID NO. 2), 91 amino acids, 9.7 kDa; recombinant or expressed in vivo by gene electrotransfer
[1]
  inhibition of adhesion of endothelial cells on fibrinogen: no significant effect
  inhibition of adhesion of endothelial cells on vitronectin: no significant effect
[2]
  inhibition of adhesion of endothelial cells on fibrinogen: 30%
  inhibition of adhesion of endothelial cells on fibronectin: 30%
  inhibition of adhesion of endothelial cells on vitronectin: 30%
